From ChEMBL document CHEMBL1201862, “PubChem BioAssay data set” (2004)
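Tested at 5 concentrations; 48 h exposure; 96-well plates; endpoints linearly interpolated, else capped at highest concentration. GI50 marks 50% less growth.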 Calls of active or inactive are those of the source. Cut-off read from the data, not from the text of the source: active = GI50 up to about 1.1 µM and inactive = higher.

What was measured:
Assay in all cases: NCI-60 cell line screen, 48 h
OVCAR-4 = test system: OVCAR-4
SR = test system: SR
Malme-3M = test system: Malme-3M
UACC-257 = test system: UACC-257
HT-29 = test system: HT-29
PC-3 = test system: PC-3
T47D = test system: T47D
EKVX = test system: EKVX
786-0 = test system: 786-0
U-251 = test system: U-251
TK-10 = test system: TK-10
MDA-MB-231 = test system: MDA-MB-231
HOP-62 = test system: HOP-62
KM-20L2 = test system: KM-20L2
SNB-19 = test system: SNB-19
MOLT-4 = test system: MOLT-4
KM12 = test system: KM12
HCC 2998 = test system: HCC 2998
Hs-578T = test system: Hs-578T
BT-549 = test system: BT-549

## O=C(NC(c1ccccc1)C(O)C(=O)OCc1ccc2c(c1)C(=O)c1ccccc1C2=O)c1ccccc1 (centres undefined)
OVCAR-4
  GI50: 2.2 µM (inactive)
SR
  GI50: 57.9 µM (inactive)
Malme-3M
  GI50: 11.4 µM (inactive)
UACC-257
  GI50: 28.5 µM (inactive)
HT-29
  GI50: 61.4 µM (inactive)
PC-3
  GI50: 17.2 µM (inactive)
T47D
  GI50: 15.2 µM (inactive)
EKVX
  GI50: 24.7 µM (inactive)
786-0
  GI50: 2.94 µM (inactive)
U-251
  GI50: 5.46 µM (inactive)
TK-10
  GI50: 15.2 µM (inactive)
MDA-MB-231
  GI50: 15 µM (inactive)
HOP-62
  GI50: 3.62 µM (inactive)
KM-20L2
  GI50: > 51.2 µM (inactive)
SNB-19
  GI50: 5.47 µM (inactive)
MOLT-4
  GI50: 74.6 µM (inactive)
KM12
  GI50: 57.4 µM (inactive)
HCC 2998
  GI50: 39.6 µM (inactive)
Hs-578T
  GI50: 34.8 µM (inactive)
BT-549
  GI50: 35.3 µM (inactive)

## NC1=C2C(Br)=CN([C@@H]3O[C@H](CO)[C@@H](O)[C@@H]3O)C2C(=O)N=N1 (some centres undefined)
OVCAR-4
  GI50: 2.44 µM (inactive)
SR
  GI50: 0.475 µM (active)
Malme-3M
  GI50: 6.89 µM (inactive)
UACC-257
  GI50: 22.4 µM (inactive)
HT-29
  GI50: 2.42 µM (inactive)
EKVX
  GI50: 5.93 µM (inactive)
786-0
  GI50: 12.4 µM (inactive)
U-251
  GI50: 8.79 µM (inactive)
TK-10
  GI50: 15.4 µM (inactive)
HOP-62
  GI50: 15.1 µM (inactive)
KM-20L2
  GI50: 22.2 µM (inactive)
SNB-19
  GI50: 43.1 µM (inactive)
MOLT-4
  GI50: 0.395 µM (active)
KM12
  GI50: 7.38 µM (inactive)
HCC 2998
  GI50: 5.02 µM (inactive)

## CO[C@H]1C[C@](C)(O)Cc2cc3c(c(O)c21)C(=O)c1c(O)cc2c(c1C3=O)O[C@@H]1O[C@@]2(C)[C@H](O)[C@@H](N(C)C)[C@@H]1O
OVCAR-4
  GI50: 4.11 µM (inactive)
SR
  GI50: 0.0282 µM (active)
Malme-3M
  GI50: 1.09 µM (active)
UACC-257
  GI50: 9.73 µM (inactive)
HT-29
  GI50: 1.94 µM (inactive)
PC-3
  GI50: 0.661 µM (active)
T47D
  GI50: 0.818 µM (active)
EKVX
  GI50: 3.55 µM (inactive)
786-0
  GI50: 0.524 µM (active)
U-251
  GI50: 0.368 µM (active)
TK-10
  GI50: 6.98 µM (inactive)
MDA-MB-231
  GI50: 1.82 µM (inactive)
HOP-62
  GI50: 0.181 µM (active)
KM-20L2
  GI50: 2.89 µM (inactive)
SNB-19
  GI50: 0.434 µM (active)
KM12
  GI50: 1.76 µM (inactive)
HCC 2998
  GI50: 2.15 µM (inactive)
Hs-578T
  GI50: 5.25 µM (inactive)
BT-549
  GI50: 2.05 µM (inactive)
